Series [1] concerns the target T1, Sam68ΔC and Fyn-SH3 binding (Homo sapiens, UniProt Q07666).
T1 construct: (Sam68ΔC) [Sam68(331-443): made by Santa Cruz Co.]; purchased Santa Cruz Sam68(331-443); Fyn(85-139) AC
The series can be described thus: SH3 domain binding inhibition test 1: Sam68ΔC bound to Fyn-SH3 beads, Western blot; inhibition ratio from band intensity (Test Examples 1 and 4). On the set-up: species or system recombinant human Sam68ΔC; mouse recombinant Fyn SH3 domain. To be noted: for inhibition at 60 µM / inhibition at 150 µM: read-out: The inhibition ratio (%) of the compound against SH3 domain binding. The method, then:
(1) Treatment of Proteins Containing the Proline-Rich Sequences with the Compounds.
The recombinant human Sam68 containing the 2 proline-rich sequences at the C terminal out of 5 proline-rich sequences in Sam68 containing proline-rich sequences (Sam68ΔC) [Sam68(331-443): made by Santa Cruz Co.], 0.25 μg was added to 1 mL of RSB buffer (10 mmol/L Tris-HCl, pH 7.6, 10 mmol/L NaCl, 1.5 mmol/L MgCl2), which is a hypotonic buffer solution containing 0.1% BSA (bovine serum albumin) [bovine serum albumin (F-V): made by Nakaraitesk] to prepare a Sam68ΔC solution. The compound was dissolved in dimethylsulfoxide (DMSO) to prepare a 10 mmol/L solution in DMSO. […] The same amount of DMSO was added to each sample. The compound was subjected to the reaction with Sam68ΔC by incubating the mixture at 37° C. for 6 hours with rotation by a roller culture machine.
(2) Treatment of Proteins Containing the SH3 Domain with the Proteins Containing the Proline-Rich Sequences Treated with the Compounds.
The Sam68ΔC solution treated with the compound, which was obtained in (1), was applied to 5 μL of Fyn-SH3-agarose beads (Fyn-SH3 beads) [Fyn(85-139) AC; made by Santa Crutz Co.], which was a mouse recombinant protein of the Fyn SH3 domain containing the SH3 domain bound to agarose beads. The binding reaction of the Sam68ΔC reacted with the compounds with Fyn-SH3 beads containing the SH3 domain were carried out at 4° C. for 16 hours with slow rotation by the roller culture machine. After the reaction, a resulting complex of Sam68ΔC and Fyn-SH3 beads was precipitated by centrifugation at […] for 3 minutes at 4° C., and then 1 mL of the TritonX/Np40 extraction buffer containing detergents [50 mmol/L Tris-HCl buffer, pH 7.4, 150 mmol/L NaCl, 1 mmol/Lethylenediaminetetraacetic acid (EDTA), 1% TritonX-100, 0.5% Nonidet P-40] was added thereto. The mixture was rotated slowly at 4° C. for 10 minutes by the roller culture machine, and precipitated and washed twice in a similar manner to that as described above. To the complex of Sam68ΔC and Fyn-SH3 beads washed above, 30 μL of Lemery's sample buffer [Protein Chemistry I-Isolation and Purification, Tokyo Kagaku Dojin, p. 211 (1976)] was added, and then the mixture was mixed well and heated at 100° C. for 10 minutes. After precipitating the beads at 1000 ppm for 5 minutes at 25° C. by a centrifuge, the supernatant was subjected to 10% polyacrylamide gel electrophoresis.
(3) Detection of Sam68ΔC Bound to the Fyn-SH3 by Western Blotting.
Sam68ΔC in the supernatant was detected by Western blotting as follows. First, the resulting gel performed the electrophoresis, which was obtained in (2), was blotted onto a nitrocellulose membrane with pore size of 0.45 μm [Protran; made by Schleicher and Schuell Co.]. After non-specific binding of the membrane was blocked by incubating the membrane at 4° C. overnight in phosphate buffer (PBS) containing 0.25% gelatin and 0.2% Tween-20 (PBS-TG), the membrane reacted with mouse anti GST antibody conjugated with horse radish peroxidase (HRP) [GST (B-14) HRP; made by Santa Crutz Co.], which was diluted 1000 times with PBS-TG, for 2 hours. After washing with PBS containing 0.2% Tween 20 (PBS-T), the detection was carried out by the chemo-luminescence reaction using ECL reagent (Amersham Pharmacia Biotech Co.).
The inhibition ratios of the compound against the SH3 domain binding were calculated as follows based on the plot of the results of the Test Example 1. The intensity of the chemo-luminescent bands of Fyn-SH3 and Sam68ΔC developed on a film was measured by a gel-scanner (TYOBO). The relative intensity of Sam68ΔC band against the intensity of Fyn-SH3 band was obtained by dividing the Sam68ΔC band intensity by the Fyn-SH3 band intensity. The ratio of the Fyn-SH3 band intensity to the Sam68ΔC band intensity was set to be 100% when no compound was added. […]

Another series has as its system MT2 cells. Briefly: Cyto-toxicity test, Trypan blue live cell count. To be noted: 10 μmol/L, incubated for 3 days. The format is cell-based. The method, then: MT2 cells (T cell strain) were suspended in RPMI1640 medium (GIBCO, No. 26140-076) supplemented with 10% fetal calf serum (GIBCO, No. 26140-079) at 2×10^5 cells/mL and distributed into each well of 96 well plates [96 well plate: Coster] at 100 μL per well. The compound was added to each well and incubated for 3 days. The cultures were observed under a microscope to examine the condition of cells and cells were harvested, stained with 0.4% Trypan blue (SIGMA, T-8154) and live cells were counted.

The next series concerns HIV-1 LAI strain. The series can be described thus: HIV-1 growth inhibition test (RT assay) in MT2 cells. To be noted: MT2 cells, 3, 5, 7 and 9 days after infection; 1, 5, 10, 25 and 50 mmol/L as printed; FIGS. 9-11 Compound 1, FIGS. 12-14 PP2. The class given is cell-based. The method, then:
(1) HIV-1 Infection and Growth Inhibition Experiment.
MT2 cells (T cell strain) were suspended in RPMI1640 medium (GIBCO No.26140-076) supplemented with 10% fetal calf serum (GIBCO, No.26140-079) at 2×10^5 cells/mL and distributed into the each well of 24 well plates (24 well plate: Coster No. 3526) by 1 mL per well. HIV-1 LAI strain {pLAI that contains DNA clone of the whole genome [GeneBank accession No. K02013 Virology 185:661 (1991)] was transfected to HeLa cells by using FuGENE6 Transfection Reagent (Roche Co. No. 1814443), incubated for 2 days and the supernatant was used.} was inoculated to each well at a final concentration of 500 cpm/μL and incubated at 37° C. overnight (virus infection). […]
HIV-1 was determined by the RT assay (Reverse Transcriptase sassy) according to the method described in J. Virol., Vol. 38, p. […]
To 5 μL of the culture supernatant obtained in (1), 25 μL of RT cocktail {50 mmol/L Tris-HCl pH 7.5, 50 mmol/L EDTA, 75 mmol/L KCl, 5 mmol/L MgCl2, 5 μg/mL Poly(A) [Pharmacia, No. 27-4110-01], 1.6 μg/mL oligo(dT)12-18 [Pharmacia, No. 27-7858-01], 5 mmol/L DTT (dithiothreitol), 0.05% NP-40 and 10 PCi/ml [α-^32P]dTTP} was added, and the mixture was incubated at 37° C. for 2 hours. […] The amount of HIV-1 was measured as RT activity count (cpm/μL) with a MICROBRTA PLUS liquid scintillation counter (Perkin Elmer). […]

The mark [2] stands for this setting: Concentration of the compound 60 μmol/L.
Where [3] appears, read: Concentration of the compound 150 μmol/L.
Setting [4] is: Concentration of the compound 20 μmol/L.
[5] abbreviates: Concentration of the compound 100 μmol/L.

The values that follow come from patent US20050069999A1, “Sh3 domain binding inhibitors” (priority 2001, published 2005).

T1 sequence (Q07666 331-443, stated change not applied): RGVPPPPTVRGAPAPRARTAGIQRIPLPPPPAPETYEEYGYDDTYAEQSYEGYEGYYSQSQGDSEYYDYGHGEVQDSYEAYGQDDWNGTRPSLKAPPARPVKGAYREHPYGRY

Consider `CC1=CC2/C=C(\C)CCC(O)C(O)/C=C/C(=O)C23C(=O)NC(CC(C)C)C3C1C` (stereo not drawn) [Compound 27, Aspochalasin D], for which the “The inhibition ratio (%) of the compound against SH3 domain binding” value (“The inhibition ratio (%) of the compound” below) in series [1] (setting [2]) and in series [1] (setting [3]) was 100% throughout.

Regarding `CC1=CC(/C=C(\C)CCC=O)C2(C(=O)/C=C/C=O)C(=O)NC(CC(C)C)C2C1C` (stereo not drawn) [Compound 22], the inhibition at 60 µM in series [1] (setting [2]) amounted to 91%. The inhibition at 150 µM in series [1] (setting [3]) was 100%.

As to `C=C1C(C)C2C(Cc3ccc(OC)cc3)NC(=O)C23OC(=O)O/C=C/C(C)(O)C(=O)C(C)C/C=C/C3C1O` (stereo not drawn) [Compound 18], the inhibition at 60 µM in series [1] (setting [2]) was 16%. Moreover, the inhibition at 150 µM in series [1] (setting [3]) came out at 67%.

As to `CC1=CC2/C=C(\C)CCC(O)C(O)C(O)CC(=O)C23C(=O)NC(CC(C)C)C3C1C` (stereo not drawn) [Compound 28, Aspochalasin E], in series [1] (setting [2]), the inhibition at 60 µM was 31%. Also, the inhibition at 150 µM in series [1] (setting [3]) was 73%.

For `CC1=CC2/C=C(\C)CCC(=O)C(=O)CCC(=O)C23C(=O)NC(CC(C)C)C3C1C` (stereo not drawn) [Compound 24, Aspochalasin A], the inhibition at 60 µM in series [1] (setting [2]) is 62%. In series [1] (setting [3]), the inhibition at 150 µM came out at 80%.

As for UCS15A [Compound 1], the “The inhibition ratio (%) of the compound” value in series [1] (setting [2]) is reported as 0%; in series [1] (setting [3]), 46%. Also, the “live cells (Trypan blue)” value in the series on MT2 cells is on record as “live cells were not decreased”.

Take `COc1ccc(CC2NC(=O)C34OC(=O)OCCC(C)(O)C(=O)C(C)C/C=C/C3C3OC3(C)C(C)C24)cc1` (stereo not drawn) [Compound 17]: in series [1] (setting [3]), the inhibition at 150 µM was determined as 36%.

As to `CC1=CC2/C=C(\C)CCCC(O)/C=C/C(=O)OC23C(=O)NC(CC(C)C)C3C1C` (stereo not drawn) [Compound 21], in series [1] (setting [2]), the inhibition at 60 µM stood at 64%. Further, the inhibition at 150 µM in series [1] (setting [3]) amounted to 100%.

Take `CC1=CC2/C=C(\C)CCC(O)C(O)/C=C/C(=O)C23C(=O)NC(CC(C)C)C3C1C` (stereo not drawn) [Compound 26, Aspochalasin C]: the inhibition at 60 µM in series [1] (setting [2]) was 92%. For the same molecule, the inhibition at 150 µM in series [1] (setting [3]) is 100%.

For the molecule `COc1ccc(CC2NC(=O)C34OC(=O)O/C=C/C(C)(O)C(=O)C(C)C/C=C/C3C(O)C(C)=C(C)C24)cc1` (stereo not drawn) [Compound 19], in series [1] (setting [3]), the inhibition at 150 µM was found to be 40%.

Turning to `CC(C)(C)n1nc(-c2ccc(Cl)cc2)c2c(N)ncnc21` [pp2, 4-amino-5-(4-chrolophenyl)-7-(tert-butyl)-pyrazolo[3,4-d]pyrimidine], in the series with HIV-1 LAI strain, the “amount of HIV-1 (RT activity count)” value is reported as “increased”.

`C[C@H]1C/C=C/[C@H]2[C@@H]3O[C@]3(C)[C@@H](C)[C@H]3[C@H](Cc4ccccc4)NC(=O)[C@]32OC(=O)O/C=C/[C@@](C)(O)C1=O` [Compound 13, Cytochalasin E]: the “The inhibition ratio (%) of the compound” value was determined as 0% in series [1] (setting [4]) and 21% in series [1] (setting [5]).

For the molecule Mer-WF1726 [Compound 12], the “The inhibition ratio (%) of the compound” value stood at 39% in series [1] (setting [4]) and 88% in series [1] (setting [5]).

In the case of `C/C1=C\CC(=O)OC23C(=O)NC(Cc4ccc(O)cc4)C2C(C)C2(C)OC2C3/C=C/CC(C)C1=O` (stereo not drawn) [Compound 16], the inhibition at 60 µM in series [1] (setting [2]) was 67%. Moreover, the inhibition at 150 µM in series [1] (setting [3]) turned out to be 78%.

In the case of `CC1=CC2/C=C(\C)CCC(O)C(O)/C=C/C(=O)OC23C(=O)NC(CC(C)C)C3C1C` (stereo not drawn) [Compound 20], the inhibition at 60 µM in series [1] (setting [2]) was found to be 92%. Moreover, the inhibition at 150 µM in series [1] (setting [3]) was determined as 100%.

Turning to `CC1=CC2/C=C(\C)CCC(O)C(=O)/C=C/C(=O)C23C(=O)NC(CC(C)C)C3C1C` (stereo not drawn) [Compound 25, Aspochalasin B], the inhibition at 60 µM in series [1] (setting [2]) worked out at 87%. In addition, the inhibition at 150 µM in series [1] (setting [3]) worked out at 100%.
